Laboratory results from patent publication US12466822B2, “Heterocyclic compounds as immunomodulators” (Incyte Corporation, priority 2016, dated 2025).

Biological target: T1, PD-1/PD-L1 protein/protein interaction (recombinant human PD-L1 protein (19-238), recombinant human PD-1 protein (25-167)) (Homo sapiens, UniProt Q9NZQ7)
T1 construct: Recombinant human PD-L1 protein (19-238) with a His-tag at the C-terminus; purchased AcroBiosystems PD1-H5229 (PD-L1-His); PD1-H5257 (PD-1-Fc)
Assay: PD-1/PD-L1 Homogeneous Time-Resolved Fluorescence (HTRF) Binding Assay
Settings: 25° C., PBS buffer (pH 7.4), 40 minutes preincubation with inhibitors
How it was run: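 Fc-tagged human PD-1 (25-167) and His-tagged PD-L1 (19-238), listed as […] and 10 nM final, preincubated 40 min with inhibitors in PBS pH 7.4, 0.05% Tween-20, 0.1% BSA, 1% DMSO, 25 °C. Eu anti-IgG/APC anti-His added, 60 min, 665/620 nm HTRF ratio; IC50 fitted from percent control activity.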

T1 sequence (Q9NZQ7 19-238): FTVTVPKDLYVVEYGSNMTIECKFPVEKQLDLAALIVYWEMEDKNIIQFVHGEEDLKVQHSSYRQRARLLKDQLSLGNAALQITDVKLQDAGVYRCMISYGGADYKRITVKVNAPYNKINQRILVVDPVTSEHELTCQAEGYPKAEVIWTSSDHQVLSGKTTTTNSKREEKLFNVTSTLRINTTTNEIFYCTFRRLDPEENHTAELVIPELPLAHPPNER

IC50 [nM] | SMILES
≤ 10 | Cc1c(Nc2nccc3cc(CN4CC[C@@H](O)C4)cnc23)cccc1-c1cccc(NC(=O)c2nc3c(n2C)CCN(CC[C@H]2CC[C@@H](C(=O)O)CC2)C3)c1Cl (single isomer, unassigned) [Example 53]
≤ 10 | Cc1c(NC(=O)c2nc3c(n2C)CCN(C2CCC(C)(C(=O)O)CC2)C3)cccc1-c1cccc(Nc2nccc3cc(CN4CC[C@@H](O)C4)cnc23)c1C (single isomer, unassigned) [Example 62-peak2]
≤ 10 | Cc1c(Nc2nccc3cc(CNCCO)cnc23)cccc1-c1cccc(NC(=O)c2ccc(CNCCO)cn2)c1Cl [Example 5, N-(2-chloro-3′-((3-(((2-hydroxyethyl)amino)methyl)-1,7-naphthyridin-8-yl)amino)-2′-methyl-[1,1′-biphenyl]-3-yl)-5-(((2-hydroxyethyl)amino)methyl)picolinamide]
≤ 10 | Cc1c(Nc2nccc3cc(CN4CC[C@H](O)C4)cnc23)cccc1-c1cccc(-c2nc3c(s2)CNCC3)c1C [Example 36, (S)-1-((8-((2,2′-dimethyl-3′-(4,5,6,7-tetrahydrothiazolo[5,4-c]pyridin-2-yl)-[1,1′-biphenyl]-3-yl)amino)-1,7-naphthyridin-3-yl)methyl)pyrrolidin-3-ol]
≤ 10 | O=C(O)[C@H]1CCN(Cc2cnc3c(Nc4cccc(-c5cccc(Nc6nccc7cc(CN8CC[C@H](O)C8)cnc67)c5Cl)c4Cl)nccc3c2)C1 [Example 83, (S)-1-((8-((2,2′-dichloro-3′-((3-(((S)-3-hydroxypyrrolidin-1-yl)methyl)-1,7-naphthyridin-8-yl)amino)-[1,1′-biphenyl]-3-yl)amino)-1,7-naphthyridin-3-yl)methyl)pyrrolidine-3-carboxylic acid]
≤ 10 | Cc1c(NC(=O)c2cc(CN3CC[C@@H](O)C3)cn(C)c2=O)cccc1-c1cccc(Nc2nccc3cc(CN4CC[C@@H](C(=O)O)C4)cnc23)c1C [Example 28, (R)-1-((8-(3′-(5-(((R)-3-hydroxypyrrolidin-1-yl)methyl)-1-methyl-2-oxo-1,2-dihydropyridine-3-carboxamido)-2,2′-dimethylbiphenyl-3-ylamino)-1,7-naphthyridin-3-yl)methyl)pyrrolidine-3-carboxylic acid]
≤ 10 | Cc1c(Nc2ncnc3cc(CN4CC[C@@H](O)C4)cnc23)cccc1-c1cccc(NC(=O)c2nc3c(n2C)CCN(C2CCC(C)(C(=O)O)CC2)C3)c1Cl (single isomer, unassigned) [Example 68-peak1]
≤ 10 | Cc1c(Nc2nccc3cc(CN4CC[C@@H](O)C4)cnc23)cccc1-c1cccc(Nc2ncnc3cc(CNC[C@H](C)O)cnc23)c1C [Example 27, (R)-1-((8-(3′-(7-(((S)-2-hydroxypropylamino)methyl)pyrido[3,2-d]pyrimidin-4-ylamino)-2,2′-dimethylbiphenyl-3-ylamino)-1,7-naphthyridin-3-yl)methyl)pyrrolidin-3-ol]
≤ 10 | Cc1c(Nc2ncnc3cc(CN4CC[C@@](C)(C(=O)O)C4)cnc23)cccc1-c1cccc(NC(=O)c2nc3c(n2C)CCN(C)C3)c1Cl [Example 67, (R)-1-((4-(2′-chloro-3′-(1,5-dimethyl-4,5,6,7-tetrahydro-1H-imidazo[4,5-c]pyridine-2-carboxamido)-2-methylbiphenyl-3-ylamino)pyrido[3,2-d]pyrimidin-7-yl)methyl)-3-methylpyrrolidine-3-carboxylic acid]

The remaining lines, values behind:

SMILES | IC50 [nM]
Cc1c(COc2cc(OCc3cncc(C#N)c3)c(CN3CCCC[C@H]3C(=O)O)cc2Cl)cccc1-c1cccc(Nc2nccc3cc(CN4CC[C@@H](O)C4)cnc23)c1C [Example 43, (S)-1-(5-chloro-2-((5-cyanopyridin-3-yl)methoxy)-4-((3′-((3-(((R)-3-hydroxypyrrolidin-1-yl)methyl)-1,7-naphthyridin-8-yl)amino)-2,2′-dimethyl-[1,1′-biphenyl]-3-yl)methoxy)benzyl)piperidine-2-carboxylic acid] | ≤ 10
O=C(O)[C@@H]1CCN(Cc2cnc3c(Nc4cccc(-c5cccc(Nc6nccc7cc(CN8CC[C@@H](O)C8)cnc67)c5Cl)c4Cl)nccc3c2)C1 [Example 78, (R)-1-((8-((2,2′-dichloro-3′-((3-(((R)-3-hydroxypyrrolidin-1-yl)methyl)-1,7-naphthyridin-8-yl)amino)-[1,1′-biphenyl]-3-yl)amino)-1,7-naphthyridin-3-yl)methyl)pyrrolidine-3-carboxylic acid] | ≤ 10
C[C@@]1(O)CCN(Cc2cnc3c(Nc4cccc(-c5cccc(Nc6nccc7cc(CN8CC[C@@H](O)C8)cnc67)c5Cl)c4Cl)nccc3c2)C1 [Example 76, (R)-1-((8-((2,2′-dichloro-3′-((3-(((R)-3-hydroxypyrrolidin-1-yl)methyl)-1,7-naphthyridin-8-yl)amino)-[1,1′-biphenyl]-3-yl)amino)-1,7-naphthyridin-3-yl)methyl)-3-methylpyrrolidin-3-ol] | ≤ 10
Cc1c(Nc2nccc3cc(CN4CC[C@@H](O)C4)cnc23)cccc1-c1cccc(NC(=O)c2cc(CN3CC[C@@H](C(=O)O)C3)cn(C)c2=O)c1Cl [Example 15, (R)-1-((5-(2-chloro-3′-(3-(((R)-3-hydroxypyrrolidin-1-yl)methyl)-1,7-naphthyridin-8-ylamino)-2′-methylbiphenyl-3-ylcarbamoyl)-1-methyl-6-oxo-1,6-dihydropyridin-3-yl)methyl)pyrrolidine-3-carboxylicacid] | ≤ 10
Cc1c(-c2nc3c(s2)CN(C(=O)CN(C)C)C3)cccc1-c1cccc(Nc2nccc3cc(CN4CC[C@@H](C(=O)O)C4)cnc23)c1Cl [Example 89, (R)-1-((8-((2-chloro-3′-(5-(dimethylglycyl)-5,6-dihydro-4H-pyrrolo[3,4-d]thiazol-2-yl)-2′-methyl-[1,1′-biphenyl]-3-yl)amino)-1,7-naphthyridin-3-yl)methyl)pyrrolidine-3-carboxylic acid] | ≤ 10
Cc1c(Nc2nccc3cc(CN4CC[C@H](O)C4)cnc23)cccc1-c1cccc(NC(=O)c2nc3c(n2C)CCN(C[C@H]2CC[C@@H](C(=O)O)CC2)C3)c1Cl [Example 55, cis 4-((2-(2-chloro-3′-(3-(((S)-3-hydroxypyrrolidin-1-yl)methyl)-1,7-naphthyridin-8-ylamino)-2′-methylbiphenyl-3-ylcarbamoyl)-1-methyl-6,7-dihydro-1H-imidazo[4,5-c]pyridin-5(4H)-yl)methyl)cyclohexanecarboxylic acid] | ≤ 10
Cc1c(Nc2nccc3cc(CN4CC[C@@H](O)C4)cnc23)cccc1-c1cccc(Nc2ncnc3cc(CNCC(C)(C)O)cnc23)c1C [Example 30, (R)-1-((8-(3′-(7-((2-hydroxy-2-methylpropylamino)methyl)pyrido[3,2-d]pyrimidin-4-ylamino)-2,2′-dimethylbiphenyl-3-ylamino)-1,7-naphthyridin-3-yl)methyl)pyrrolidin-3-ol] | ≤ 10
Cc1c(Nc2nccc3cc(CN4CC[C@H](O)C4)cnc23)cccc1-c1cccc(Nc2nccc3cc(CN4CC[C@H](C(=O)O)C4)cnc23)c1C [Example 13, (S)-1-((8-((3′-((3-(((S)-3-hydroxypyrrolidin-1-yl)methyl)-1,7-naphthyridin-8-yl)amino)-2,2′-dimethyl-[1,1′-biphenyl]-3-yl)amino)-1,7-naphthyridin-3-yl)methyl)pyrrolidine-3-carboxylic acid] | ≤ 10
Cc1c(Nc2nccc3cc(CN4CC[C@@H](O)C4)cnc23)cccc1-c1cccc(Nc2nccc3cc(CNCCC(=O)O)cnc23)c1Cl [Example 81, (R)-3-(((8-((2-chloro-3′-((3-((3-hydroxypyrrolidin-1-yl)methyl)-1,7-naphthyridin-8-yl)amino)-2′-methyl-[1,1′-biphenyl]-3-yl)amino)-1,7-naphthyridin-3-yl)methyl)amino)propanoic acid] | ≤ 10
Cc1c(-c2nc3c(s2)CN(C(=O)CN(C)C)C3)cccc1-c1cccc(Nc2nccc3cc(CN4CC5CC4CC5C(=O)O)cnc23)c1Cl (stereo not shown) [Example 92, 2-((8-((2-chloro-3′-(5-(dimethylglycyl)-5,6-dihydro-4H-pyrrolo[3,4-d]thiazol-2-yl)-2′-methyl-[1,1′-biphenyl]-3-yl)amino)-1,7-naphthyridin-3-yl)methyl)-2-azabicyclo[2.2.1]heptane-5-carboxylic acid] | ≤ 10
Cc1c(Nc2nccc3cc(CN4CC[C@@H](C(=O)O)C4)cnc23)cccc1-c1cccc(-c2nc3c(s2)CNCC3)c1C [Example 34, (R)-1-((8-((2,2′-dimethyl-3′-(4,5,6,7-tetrahydrothiazolo[5,4-c]pyridin-2-yl)-[1,1′-biphenyl]-3-yl)amino)-1,7-naphthyridin-3-yl)methyl)pyrrolidine-3-carboxylic acid] | ≤ 10
Cc1c(-c2nc3c(s2)CN(C(=O)CN2CC[C@@H](O)C2)C3)cccc1-c1cccc(Nc2nccc3cc(CN4CC[C@@H](C(=O)O)C4)cnc23)c1Cl [Example 95, (R)-1-((8-((2-chloro-3′-(5-(2-((R)-3-hydroxypyrrolidin-1-yl)acetyl)-5,6-dihydro-4H-pyrrolo[3,4-d]thiazol-2-yl)-2′-methyl-[1,1′-biphenyl]-3-yl)amino)-1,7-naphthyridin-3-yl)methyl)pyrrolidine-3-carboxylic acid] | ≤ 10
Cc1c(NC(=O)c2nc3c(n2C)CCN(CC[C@H]2CC[C@H](C(=O)O)CC2)C3)cccc1-c1cccc(Nc2nccc3cc(CN4CC[C@@H](O)C4)cnc23)c1Cl [Example 66, trans 4-(2-(2-(2′-chloro-3′-(3-(((R)-3-hydroxypyrrolidin-1-yl)methyl)-1,7-naphthyridin-8-ylamino)-2-methylbiphenyl-3-ylcarbamoyl)-1-methyl-6,7-dihydro-1H-imidazo[4,5-c]pyridin-5(4H)-yl)ethyl)cyclohexanecarboxylic acid] | ≤ 10
